Measured values published in PMC8205030, “Methoxy and bromo scans on N-(5-methoxyphenyl) methoxybenzenesulphonamides reveal potent cytotoxic compounds, especially against the human breast adenocarcinoma MCF7 cell line” (Journal of Enzyme Inhibition and Medicinal Chemistry, 2021).

Tested on: p-62 in HeLa cells
Experiment: Western blot of autophagosome marker p-62, HeLa
Type: cell-based, human
Conditions: 175 nM, 24 h
Experimental: MCF7, HeLa and HT-29 cells in an exponential growth phase at 2 × 10^4 cells/mL were seeded in Petri dishes (20 × 100 mm) (10 ml/dish). After 24 h incubation, cells were treated with compound 25 at 175 nM, and the levels of p-62 in treated and untreated cells were measured at 24 h post-treatment. The culture medium was removed, cells were washed with PBS and resuspended in 1 ml lysis buffer (50 mM Tris, 130 mM NaCl, 1 mM EDTA, 1% Triton X-100) containing protease inhibitors (Complete, Roche Applied Science, Indianapolis). Cells were harvested and incubated with lysis buffer for 30 min at 4 °C in constant agitation. Cell extracts were centrifuged at 12,000 rpm for 15 min at 4 °C and the supernatants were stored at −80 °C. Protein concentrations were determined using Bradford (BioRad, Hercules, CA) method taking BSA (Bovine Serum Albumin) as standard. Protein extracts were used for electrophoresis mixing with loading buffer (4% SDS, 0.05% bromophenol blue, 20% glycerine, 2% β-mercaptoethanol, and Tris 100 mM at pH 6.8). Proteins were then denatured at 95 °C for 7 min. Protein samples (50 μg/lane) were subjected to electrophoresis on 8% acrylamide gel and SDS-PAGE running buffer at constant voltage (140 V). Then, acrylamide gels were transferred to a PVDF membrane (Merck Millipore, Burlington, Massachusetts, USA) using a semi-dry transfer system for 30 min at constant voltage (15 V). […]

`COc1ccc(S(=O)(=O)N(CC#N)c2cc(OC)c(Br)cc2OC)cc1` [Compound 25, N-(4-bromo-2,5-dimethoxyphenyl)-N-(cyanomethyl)-4-methoxybenzenesulphonamide] was tested, and the p-62 levels was “almost complete reduction in the expression of p-62”.
